Patent US20250042884A1, “3-ARYLOXYL-3-FIVE-MEMBERED HETEROARYL PROPYLAMINE COMPOUND AND USE THEREOF” (Shanghai Leado Pharmatech Co. Ltd., priority 2018, published 2025)
Where two headings read alike, the source gives them in different places.

What was measured:
TRPA1 = TRPA1 (Mus musculus (Mouse), UniProt Q8BLA8); assay: IonWorks Barracuda (IWB) automated patch clamp detection of TRPA1 inhibitory activity; format: cell-based; conditions: for IC50: HEK293 cells stably expressing TRPA1
Procedure: The inhibitory activity of some compounds in the examples of the present invention (as shown in Table 1) on transient receptor potential channel protein TRPA1 was tested in this example. The compound of formula A (WO2010075353) was used as a positive control compound: […]
Ion Works Barracuda (IWB) automated patch clamp detection was used as test method: HEK293 cells stably expressing TRPA1 were placed in DMEM medium containing 15 μg/mL Blasticidin S HCl, 200 μg/mL Hygromycin B and 10% FBS in the T175 culture flask, and cultured in 37° C., 5% CO2 incubator. When the cell density reached about 80%, the culture medium was removed, rinsed with phosphate buffered saline (PBS) without calcium and magnesium. 3 mL of Trypsin was added to digest for 2 min, 7 mL of culture medium was added to terminate the digestion. The cells were collected to 15 mL centrifuge tube and centrifuged at 800 rpm for 3 min. After the supernatant was removed, the cells were added to appropriate volume of extracellular fluid for re-suspending, and the cell density was controlled at 2-3×10^6/mL for IWB experiment. Extracellular fluid formulation (in mM): 140 NaCl, 5 KCl, 1 MgCl2, 10 HEPES, 0.5 EGTA, 10 Glucose (pH 7.4); intracellular fluid formulation (in mM): 140 CsCl, 10 HEPES, 5 EGTA, 0.1 CaCl2, 1 MgCl2 (pH 7.2). 28 mg/mL of amphotericin B was freshly prepared with DMSO on the day of experiment, and then final concentration of 0.1 mg/mL was prepared with intracellular fluid.
Population patch clamp (PPC) plate was used in IWB experiment. The entire detection process was automatically carried out by the instrument. Extracellular fluid was added into 384 wells of PPC plate, and 6 µL of the intracellular fluid was added into plenum (under the PPC plate), 6 µL of cell fluid was added for sealing test, and finally the intracellular fluid in plenum was replaced with amphotericin B-containing intracellular fluid to establish a whole-cell recording mode after perforating sealed cells. The sampling frequency for recording TPRA1 current was 10 kHz, the cells were clamped at 0 mV, the voltage stimulation command (channel protocol) was a ramp voltage from −100 mV to +100 mV for 300 ms. This voltage stimulation was applied every 10 s, mTRPA1current was induced by 300 µM AITC.
Data recording and current amplitude measurement export were carried out by IWB software (version 2.5.3, Molecular Devices Corporation, Union City, CA). No statistics was recorded for holes with sealing impedance lower than 20 MQΩ. The original current data was corrected by software for leakage reduction. TRPA1 current amplitude was measured at +100 mV. […] If IC50 value of HC030031 exceeded 3 times the average IC50 value previously obtained on each plate, it would be re-tested. The dose-effect curve of compounds and IC50 were fitted and calculated by GraphPad Prism 5.02 (GraphPad Software, San Diego, CA).
Some compounds in the examples of the present invention were detected by lonWorks Barracuda (IWB) automated patch clamp detection method for IC50 inhibitory activity.

SD rats = assay: Rat SNL model, mechanical allodynia test (nerve pain); format: in vivo; conditions: 1 h after administration, 10 mg/kg oral, hydrochloride salt; control group 3.967 ± 0.775
Procedure: Male SPF grade SD rats, weighed 150 g-180 g, were selected. Aseptic operation during surgery was performed. The animals were anesthetized with sodium pentobarbital (50 mg/kg, intraperitoneal injection). The surgical area of animal waist was shaved and the skin was disinfected three times with iodophor and 70% ethanol. After the skin was dried, the operation was started. Surgical knife was used to make a longitudinal incision at the back of the sacrum of the animal waist to expose the left paraspinal muscles, and stretcher was used to separate muscle tissue to expose the spine. The left spinal nerves L5 and L6 were separated and ligated with a 6-0 silk thread, and the wound was sutured. After the operation, the animals were placed on electrothermal pad, and 5 mL of saline was injected subcutaneously to prevent dehydration. After the animals were fully awakened and could move around freely, the animals were put back in the cage.
After the operation, the animals were adapted in the experimental environment for 15min/day for 3 days.
The animals were weighed to calculate the dose. […] After administration, mechanical allodynia test was performed. The rat was individually placed in a plexiglass box with a grid on the bottom of the box to ensure that the rat claw could be tested. The rats were allowed to adapt the environment for 15 min before test. After the adaptation was completed, the test fiber was used to test the center of the left hind claw of the rat. The test fiber comprises 8 test strengths: 3.61 (0.4 g), 3.84 (0.6 g), 4.08 (1 g), 4.31 (2 g), 4.56 (4 g), 4.74 (6 g), 4.93 (8 g), and 5.18 (15 g). […] During the test, rapid withdrawal of animal claw was recorded as pain response. When the test fiber was removed from animal skin, the withdrawal of animal claw was also recorded as pain response. If animal moved, the pain response was not recorded, and the test was repeated. […]
Mechanical allodynia was expressed as withdrawal threshold (PWT) in rat behavioral test, which was calculated with the following formula: […]

TRPA1, sequence (Q8BLA8 whole entry): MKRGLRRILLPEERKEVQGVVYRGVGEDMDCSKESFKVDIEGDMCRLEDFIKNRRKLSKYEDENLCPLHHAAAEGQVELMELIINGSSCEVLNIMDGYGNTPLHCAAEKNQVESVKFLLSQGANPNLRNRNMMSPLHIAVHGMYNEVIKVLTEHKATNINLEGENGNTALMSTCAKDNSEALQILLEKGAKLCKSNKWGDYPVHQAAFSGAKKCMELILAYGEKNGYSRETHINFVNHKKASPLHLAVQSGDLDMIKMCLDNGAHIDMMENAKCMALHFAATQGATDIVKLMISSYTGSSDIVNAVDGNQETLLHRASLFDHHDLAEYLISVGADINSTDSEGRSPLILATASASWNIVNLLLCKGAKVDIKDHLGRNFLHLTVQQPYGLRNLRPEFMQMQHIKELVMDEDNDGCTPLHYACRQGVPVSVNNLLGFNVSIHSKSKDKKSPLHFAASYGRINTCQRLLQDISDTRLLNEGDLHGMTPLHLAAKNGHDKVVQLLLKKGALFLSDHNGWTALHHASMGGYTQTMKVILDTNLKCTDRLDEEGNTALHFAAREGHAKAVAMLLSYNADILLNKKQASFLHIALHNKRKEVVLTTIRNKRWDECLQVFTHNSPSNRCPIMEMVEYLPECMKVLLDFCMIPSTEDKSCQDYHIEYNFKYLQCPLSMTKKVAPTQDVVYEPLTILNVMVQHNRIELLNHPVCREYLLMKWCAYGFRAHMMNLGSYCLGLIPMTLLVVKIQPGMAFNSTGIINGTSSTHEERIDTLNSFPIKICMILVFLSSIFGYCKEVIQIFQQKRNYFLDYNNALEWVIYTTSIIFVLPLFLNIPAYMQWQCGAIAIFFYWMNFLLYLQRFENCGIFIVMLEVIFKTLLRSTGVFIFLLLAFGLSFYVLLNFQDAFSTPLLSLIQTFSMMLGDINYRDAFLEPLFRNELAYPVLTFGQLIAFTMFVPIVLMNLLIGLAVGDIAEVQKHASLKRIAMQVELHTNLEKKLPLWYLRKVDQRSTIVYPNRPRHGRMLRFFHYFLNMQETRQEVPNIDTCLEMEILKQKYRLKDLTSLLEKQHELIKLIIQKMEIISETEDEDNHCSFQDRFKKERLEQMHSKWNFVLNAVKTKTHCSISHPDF

IC50 (TRPA1; FIG. 1, read-out: IC50 on TRPA1, automated patch clamp): 2.06 µM
IC50 (TRPA1; current induced by AITC, read-out: IC50 (μM), inhibitory activity on TRPA1 in the automated patch clamp detection test): 1 to 5 µM
activity ratio, IC50 of compound C2/IC50 of compound I-1 (TRPA1; TRPA1, automated patch clamp): about 6.3
SMILES: CNCC[C@@H](Oc1cccc2ccoc12)c1cccs1 [Compound I-1, (R)-3-(benzofuran-7-yloxy)-N-methyl-3-(thiophen-2-yl)propyl-1-amine]
PWT(g), claw withdrawal threshold (SD rats): 7.869 ± 2.846 g
